Test results as given in US5827895A, “Hexahydrolupulones useful as anticancer agents” (Regents of the University of Minnesota, priority 1996, dated 1998).
Converted amounts (≈) assume the structure as drawn. Where two headings read alike, the source gives them in different places. *1 amine or outer side, *2 acyl side, *3 side chain or, on linkers, in order; H or OH if unused. Where a SMILES comes first, the peptide text is derived from it. Bridges are numbered along the chain shown (N, C = ends). [ ]: non-standard residue; d: D form. The star is where a group is joined. X1 = NC1=N[C@@H]([C@H](N[*:1])C(=O)[*:2])C[C@H](O)N1; ΔAla(Z-3-ureido) = NC(=O)N/C=C(\N)C(=O)O; β3hOrn = NCCC[C@H](N)CC(=O)*; Dap = NC[C@H](N)C(=O)O

Experiments:
TB = conditions: currently utilized anti-TB drugs, for comparison; cited from earlier work
[1] = system: VRE (Vancomycin Resistant Enterococcus faeclum)
Method: (§1) HHC was also tested for effectiveness against various bacterial isolates obtained from human subjects.

[2] = system: OxaRSA (Oxacillin Resistant Staphylococcus aureus); assay: Patient isolates evaluated for antibiotic sensitivity, OxaRSA; conditions: patient G, OxaRSA
Method: as §1

[3] = system: MRSA (Methicillin Resistant Staphylococcus aureus); assay: Patient isolates evaluated for antibiotic sensitivity, MRSA
Method: as §1

Hela cells = conditions: Mannering et al.; cited from earlier work
CEM leukemia cells = conditions: Mannering et al.; cited from earlier work
[4] = system: adriamycin- and vinblastin-resistant CEM cells; conditions: Mannering et al.; cited from earlier work
Listeria monocytogenes = conditions: U.S. Pat. Nos. 5,286,506; 5,455,038; cited from earlier work
[5] = Carson, 1951; cited from earlier work
Lactobacilli = conditions: U.S. Pat. No. 5,082,975; cited from earlier work

[H]/N=C(/N)N[C@H]1[C@H](O)[C@@H](O)[C@H](O[C@@H]2O[C@@H](C)[C@](O)(C=O)[C@H]2O[C@@H]2O[C@@H](CO)[C@H](O)[C@@H](O)[C@@H]2NC)[C@@H](N/C(N)=N\[H])[C@@H]1O [Strep, Streptomycin]
MIC (TB): 1.8 to 17 µM
antibiotic sensitivity ([1]; patient B, R > 2000 μg/ml): R (R > 2000 μg/ml)

CC[C@H]1OC(=O)[C@H](C)[C@@H](O[C@H]2C[C@@](C)(OC)[C@@H](O)[C@H](C)O2)[C@H](C)[C@@H](O[C@@H]2O[C@H](C)C[C@H](N(C)C)[C@H]2O)[C@](C)(O)C[C@@H](C)C(=O)[C@H](C)[C@@H](O)[C@]1(C)O [Eryth, Erythromycin]
antibiotic sensitivity ([2]; R > 8 μg/ml): R (R > 8 μg/ml)
antibiotic sensitivity ([3]; patient D, R > 8 μg/ml): R (R > 8 μg/ml)
antibiotic sensitivity ([3]; patient E, R > 8 μg/ml): R (R > 8 μg/ml)

Cc1onc(-c2ccccc2)c1C(=O)N[C@@H]1C(=O)N2[C@@H]1SC(C)(C)[C@@H]2C(=O)O [Oxa, Oxacillin]
antibiotic sensitivity ([2]; R > 8 μg/ml): R (R > 8 μg/ml)
antibiotic sensitivity ([3]; patient D, R > 8 μg/ml): R (R > 8 μg/ml)
antibiotic sensitivity ([3]; patient E, R > 8 μg/ml): R (R > 8 μg/ml)

CN(C)[C@@H]1C(=O)C(C(N)=O)=C(O)[C@@]2(O)C(=O)C3=C(O)c4c(O)cccc4[C@@](C)(O)[C@H]3C[C@@H]12 [Tetra, Tetracycline]
antibiotic sensitivity ([1]; patient A, threshold not given): S
antibiotic sensitivity ([1]; patient B, threshold not given): S

NC(=O)c1cnccn1 [Pyrazinamide]
MIC (TB): 122 µM (≈ 15 µg/mL)

NCCC[C@H](N)CC(=O)N[C@H]1CNC(=O)[C@H]([C@H]2C[C@H](O)NC(N)=N2)NC(=O)/C(=C/NC(N)=O)NC(=O)[C@H](CO)NC(=O)[C@H](CO)NC1=O [Viomycin] (β3hOrn-[Dap]SS[ΔAla(Z-3-ureido)][X1]; lactam 1-C)
MIC (TB): 1.5 to 15 µM

CO[C@H]1/C=C/O[C@@]2(C)Oc3c(C)c(O)c4c(O)c(c(/C=N/N5CCN(C)CC5)c(O)c4c3C2=O)NC(=O)/C(C)=C\C=C\[C@H](C)[C@H](O)[C@@H](C)[C@@H](O)[C@@H](C)[C@H](OC(C)=O)[C@@H]1C [Rif, Rifampin]
antibiotic sensitivity ([3]; patient F, threshold not given): S
antibiotic sensitivity ([1]; patient B, threshold not given): S

O=C(N[C@H](CO)[C@H](O)c1ccc([N+](=O)[O-])cc1)C(Cl)Cl [Chlor, Chloramphenicol]
antibiotic sensitivity ([1]; patient A, threshold not given): S
antibiotic sensitivity ([1]; patient B, threshold not given): S
antibiotic sensitivity ([1]; patient C, threshold not given): S

CC(C)=CCC1=C(O)C(C(=O)C(C)C)=C(O)C(CC=C(C)C)(CC=C(C)C)C1=O [Colupulone]
activity against Hela cells (Hela cells): active against Hela cells
activity against CEM leukemia cells (CEM leukemia cells): active
activity against resistant CEM cells [4]: active

CC[C@@H](CO)NCCN[C@@H](CC)CO [Ethambutol]
MIC (TB): 5 to 25 µM

CC(C)CCC(=O)C1(O)C(O)=C(C(=O)CC(C)C)C(=O)C1CCC(C)C (stereo not shown) [tetrahydroisohumulone, reference compound]
growth inhibition of food pathogens (Listeria monocytogenes): can inhibit the growth of food pathogens, such as Listeria monocytogenes

Gentamicin
antibiotic sensitivity ([1]; patient B, threshold not given): S

NNC(=O)c1ccncc1 [Isoniazid]
MIC (TB): 1.5 µM (≈ 0.206 µg/mL)

Peniciliin
antibiotic sensitivity ([2]; R > 8 μg/ml): R (R > 8 μg/ml)
antibiotic sensitivity ([3]; patient D, R > 8 μg/ml): R (R > 8 μg/ml)
antibiotic sensitivity ([3]; patient E, R > 8 μg/ml): R (R > 8 μg/ml)
antibiotic sensitivity ([3]; patient F, R > 8 μg/ml): R (R > 8 μg/ml)
antibiotic sensitivity ([1]; patient A, R > 8 μg/ml): R (R > 8 μg/ml)
antibiotic sensitivity ([1]; patient B, R > 8 μg/ml): R (R > 8 μg/ml)
antibiotic sensitivity ([1]; patient C, R > 8 μg/ml): R (R > 8 μg/ml)

CN[C@H](CC(C)C)C(=O)N[C@H]1C(=O)N[C@@H](CC(N)=O)C(=O)N[C@H]2C(=O)N[C@H]3C(=O)N[C@H](C(=O)N[C@H](C(=O)O)c4cc(O)cc(O)c4-c4cc3ccc4O)[C@H](O)c3ccc(c(Cl)c3)Oc3cc2cc(c3O[C@@H]2O[C@H](CO)[C@@H](O)[C@H](O)[C@H]2O[C@H]2C[C@](C)(N)[C@H](O)[C@H](C)O2)Oc2ccc(cc2Cl)[C@H]1O [Vanco, Vancomycin]
antibiotic sensitivity ([2]; R > 16 μg/ml): S
antibiotic sensitivity ([3]; patient D, R > 16 μg/ml): S
antibiotic sensitivity ([3]; patient E, R > 16 μg/ml): S
antibiotic sensitivity ([1]; patient A, R > 16 μg/ml): R (R > 16 μg/ml)
antibiotic sensitivity ([1]; patient B, R > 16 μg/ml): R (R > 16 μg/ml)
antibiotic sensitivity ([1]; patient C, R > 16 μg/ml): S

CC1(C)S[C@@H]2[C@H](NC(=O)[C@H](N)c3ccccc3)C(=O)N2[C@H]1C(=O)O [Amp, Ampicillin]
antibiotic sensitivity ([3]; patient F, R > 8 μg/ml): R (R > 8 μg/ml)
antibiotic sensitivity ([1]; patient A, R > 8 μg/ml): R (R > 8 μg/ml)
antibiotic sensitivity ([1]; patient B, R > 8 μg/ml): R (R > 8 μg/ml)
antibiotic sensitivity ([1]; patient C, R > 8 μg/ml): R (R > 8 μg/ml)

CC(=O)OCC1=C(C(=O)O)N2C(=O)[C@@H](NC(=O)Cc3cccs3)[C@H]2SC1 [Ceph, Cephalothin]
antibiotic sensitivity ([2]; R > 32 μg/ml): R (R > 32 μg/ml)
antibiotic sensitivity ([3]; patient D, R > 32 μg/ml): R (R > 32 μg/ml)
antibiotic sensitivity ([3]; patient E, R > 32 μg/ml): R (R > 32 μg/ml)

CCC[C@@H]1C[C@@H](C(=O)N[C@@H]([C@H]2O[C@H](SC)[C@H](O)[C@@H](O)[C@H]2O)[C@H](C)Cl)N(C)C1 [Clin, Clindamycin]
antibiotic sensitivity ([2]; R > 8 μg/ml): R (R > 8 μg/ml)
antibiotic sensitivity ([3]; patient D, R > 8 μg/ml): R (R > 8 μg/ml)
antibiotic sensitivity ([3]; patient E, R > 8 μg/ml): R (R > 8 μg/ml)

CCc1cc(C(N)=S)ccn1 [Ethionamide]
MIC (TB): 15 µM (≈ 2.49 µg/mL)

N[C@@H]1CON=C1O [Cycloserine]
MIC (TB): 147 to 195 µM

CC(C)CCC1=C(O)C(C(=O)CC(C)C)=C(O)C(CCC(C)C)(CCC(C)C)C1=O [hexahydrolupulone]
stability relative to non-hydrogenated parent [5]: more stable than lupulone
growth inhibition of certain Lactobacilli (Lactobacilli): inhibits the growth of certain Lactobacilli

O=C(O)c1cn(C2CC2)c2cc(N3CCNCC3)c(F)cc2c1=O [Cipro, Ciprofloxacin]
antibiotic sensitivity ([2]; R > 2 μg/ml): R (R > 2 μg/ml)
antibiotic sensitivity ([3]; patient D, R > 2 μg/ml): R (R > 2 μg/ml)
antibiotic sensitivity ([3]; patient E, R > 2 μg/ml): R (R > 2 μg/ml)
antibiotic sensitivity ([3]; patient F, R > 2 μg/ml): R (R > 2 μg/ml)
antibiotic sensitivity ([1]; patient A, R > 2 μg/ml): R (R > 2 μg/ml)
antibiotic sensitivity ([1]; patient B, R > 2 μg/ml): R (R > 2 μg/ml)
antibiotic sensitivity ([1]; patient C, R > 2 μg/ml): R (R > 2 μg/ml)
